Test results reported in ChEMBL document CHEMBL3045413, “Occurrence of zearalenone-4-beta-D-glucopyranoside in wheat” (J Agric Food Chem, 2002).

Columns and labels:
Format in all cases: ADME, organism-based
[1] = tested on: Triticum aestivum; assay: Drug level in Bavarian Triticum aestivum (wheat) at 10 to 100 ug/kg after 1 day by LC-MS analysis; settings: in vivo, 24 h
[2] = tested on: Triticum aestivum; assay: Drug recovery in BavarianTriticum aestivum (wheat) samples at 10 ug/kg after 1 day by LC-MS analysis; settings: in vivo, 0.01 mg/kg, 24 h
[3] = tested on: Triticum aestivum; assay: Drug recovery in Bavarian Triticum aestivum (wheat) samples at 100 ug/kg after 1 day by LC-MS analysis; settings: in vivo, 0.1 mg/kg, 24 h

SMILES | Drug uptake [1] [µg/kg] | Drug recovery [2] [%] | Drug recovery [3] [%]
C[C@H]1CCCC(=O)CCC/C=C/c2cc(O)cc(O)c2C(=O)O1 [ZEARALENONE] | 11 | 32 | 89
C[C@H]1CCCC(=O)CCC/C=C/c2cc(O[C@@H]3O[C@H](CO)[C@@H](O)[C@H](O)[C@H]3O)cc(O)c2C(=O)O1 [Zearalenone-4-beta-D-glucopyranoside] | 17 | 67 | 69
